Each structure is given as a SMILES string. Values joined by “and” are separate entries in the source; they are usually repeats but may differ in a detail not shown here. Equal values may be shown once. Read-outs that look alike come from different tables or passages of the source.

In the test the test system is E. coli strain W3110. Put plainly: Synergy assays: Biolog chemical sensitivity panels with Group IB metal, coefficient of drug interaction (CDI) from relative growth. The format is cell-based. To be noted: for CDI (coefficient of drug interaction) / CDI (coefficient of drug interaction), silver + biocide: E. coli.

Regarding `O=C(O)CN(CCOCCOCCN(CC(=O)O)CC(=O)O)CC(=O)O` [EGTA], the CDI was 1.05 (Copper 0.1 mM, biocide concentration 1 of 4); 1.25 (Copper 0.1 mM, biocide concentration 2 of 4); 1.28 (Copper 0.1 mM, biocide concentration 3 of 4); 1.06 (Copper 0.1 mM, biocide concentration 4 of 4); 0.87 (Copper 0.5 mM, biocide concentration 1 of 4); 1.02 (Copper 0.5 mM, biocide concentration 2 of 4). The CDI (Copper 0.5 mM, biocide concentration 3 of 4) stood at 1.06; the CDI (Copper 0.5 mM, biocide concentration 4 of 4) is recorded as 1.04; the CDI (Copper 1.0 mM, biocide concentration 1 of 4) was found to be 0.94; the CDI (Copper 1.0 mM, biocide concentration 2 of 4) is reported as 1.30; the CDI (Copper 1.0 mM, biocide concentration 3 of 4) is given as 1.59; the CDI (Copper 1.0 mM, biocide concentration 4 of 4) came out at 1.44. In addition, the “CDI (coefficient of drug interaction)” value stood at 1.05 (Gold 5 μM, biocide concentration 1 of 4); 0.88 (Gold 5 μM, biocide concentration 2 of 4); 0.94 (Gold 5 μM, biocide concentration 3 of 4); 0.92 (Gold 5 μM, biocide concentration 4 of 4); 1.07 (Gold 25 μM, biocide concentration 1 of 4); 1.00 (Gold 25 μM, biocide concentration 2 of 4). The “CDI (coefficient of drug interaction)” value is 0.95 (Gold 25 μM, biocide concentration 3 of 4); 0.97 (Gold 25 μM, biocide concentration 4 of 4); 1.02 ([…], biocide concentration 1 of 4); 1.13 ([…], biocide concentration 2 of 4); 1.04 ([…], biocide concentration 3 of 4); 1.11 ([…], biocide concentration 4 of 4). The “CDI (coefficient of drug interaction), silver + biocide” value reads like this: (Silver 0.5 μM, 1st of four biocide concentrations) 0.74; (Silver 0.5 μM, 2nd of four biocide concentrations) 0.86; (Silver 0.5 μM, 3rd of four biocide concentrations) 0.82; (Silver 0.5 μM, 4th of four biocide concentrations) 0.92; (Silver 1.0 μM, 1st of four biocide concentrations) 1.02; (Silver 1.0 μM, 2nd of four biocide concentrations) 1.07. Also, the “CDI (coefficient of drug interaction), silver + biocide” value was 1.01 (Silver 1.0 μM, 3rd of four biocide concentrations); 1.02 (Silver 1.0 μM, 4th of four biocide concentrations); 1.13 (Silver 5.0 μM, 1st of four biocide concentrations); 0.98 (Silver 5.0 μM, 2nd of four biocide concentrations); 0.72 (Silver 5.0 μM, 3rd of four biocide concentrations); 0.4 (Silver 5.0 μM, 4th of four biocide concentrations).

Regarding `N[C@@H](CC(=O)NO)C(=O)O` [L-Aspartic-β-hydroxamate], the “CDI (coefficient of drug interaction), gold + biocide” value (from here on “CDI … gold + biocide”) is 1.03 and 1.06 and 1.05 and 1.11 and 1.19 and 1.02 and 1.01.

For `NC(CCC(=O)NO)C(=O)O` [L-glutamic-γ-hydroxamate], the “CDI (coefficient of drug interaction)” value is, setting by setting: (Copper (mM), 1st of 3 copper concentrations (head line not shown), biocide concentration 1 of 4) 1.14; (Copper (mM), 1st of 3 copper concentrations (head line not shown), biocide concentration 2 of 4) 1.16; (Copper (mM), 1st of 3 copper concentrations (head line not shown), biocide concentration 3 of 4) 0.97; (Copper (mM), 1st of 3 copper concentrations (head line not shown), biocide concentration 4 of 4) 1.01; (Copper (mM), 2nd of 3 copper concentrations (head line not shown), biocide concentration 1 of 4) 0.87; (Copper (mM), 2nd of 3 copper concentrations (head line not shown), biocide concentration 2 of 4) 0.90. In addition, the “CDI (coefficient of drug interaction)” value runs as follows: (Copper (mM), 2nd of 3 copper concentrations (head line not shown), biocide concentration 3 of 4) 0.92; (Copper (mM), 2nd of 3 copper concentrations (head line not shown), biocide concentration 4 of 4) 0.96; (Copper (mM), 3rd of 3 copper concentrations (head line not shown), biocide concentration 1 of 4) 0.75; (Copper (mM), 3rd of 3 copper concentrations (head line not shown), biocide concentration 2 of 4) 0.80; (Copper (mM), 3rd of 3 copper concentrations (head line not shown), biocide concentration 3 of 4) 0.69; (Copper (mM), 3rd of 3 copper concentrations (head line not shown), biocide concentration 4 of 4) 0.74. The “CDI … gold + biocide” value reads like this: (Gold (μM), first of 3 gold concentrations, biocide concentration 1 of 4) 1.03; (Gold (μM), first of 3 gold concentrations, biocide concentration 2 of 4) 1.03; (Gold (μM), first of 3 gold concentrations, biocide concentration 3 of 4) 1.08; (Gold (μM), first of 3 gold concentrations, biocide concentration 4 of 4) 1.08; (Gold (μM), second of 3 gold concentrations, biocide concentration 1 of 4) 1.02; (Gold (μM), second of 3 gold concentrations, biocide concentration 2 of 4) 1.01. The “CDI … gold + biocide” value (Gold (μM), second of 3 gold concentrations, biocide concentration 3 of 4) worked out at 1.09; the “CDI … gold + biocide” value (Gold (μM), second of 3 gold concentrations, biocide concentration 4 of 4) is 1.04; the “CDI … gold + biocide” value (Gold (μM), third of 3 gold concentrations, biocide concentration 1 of 4) was determined as 1.01; the “CDI … gold + biocide” value (Gold (μM), third of 3 gold concentrations, biocide concentration 2 of 4) is listed as 1.01; the “CDI … gold + biocide” value (Gold (μM), third of 3 gold concentrations, biocide concentration 3 of 4) amounted to 1.02; the “CDI … gold + biocide” value (Gold (μM), third of 3 gold concentrations, biocide concentration 4 of 4) is on record as 1.01. Further, the CDI is, setting by setting: (Silver 0.5 μM, biocide concentration 1 of 4) 0.93; (Silver 0.5 μM, biocide concentration 2 of 4) 0.75; (Silver 0.5 μM, biocide concentration 3 of 4) 0.61; (Silver 0.5 μM, biocide concentration 4 of 4) 0.49; (Silver 1.0 μM, biocide concentration 2 of 4) 0.97; (Silver 1.0 μM, biocide concentration 3 of 4) 0.93. Besides, the CDI (Silver 1.0 μM, biocide concentration 4 of 4) worked out at 0.71; the CDI (Silver 5.0 μM, biocide concentration 1 of 4) was 1.00; the CDI (Silver 5.0 μM, biocide concentration 2 of 4) stood at 0.85; the CDI (Silver 5.0 μM, biocide concentration 3 of 4) came to 0.71; the CDI (Silver 5.0 μM, biocide concentration 4 of 4) came out at 0.34.

The values above are taken from patent publication US11382328B2, “Rapid drug discovery methods for pathogen inactivation” (priority 2019, dated 2022).
